This is an account of results in ChEMBL document CHEMBL1667758, “Synthesis and biological activity of novel inhibitors of topoisomerase I: 2-aryl-substituted 2-bis-1H-benzimidazoles” (Eur J Med Chem, 2011).

Data set [1] concerns Calf thymus DNA. The data set is described as follows: Binding affinity to calf thymus DNA assessed as hypochromicity at DNA/drug ratio 4 after 15 mins by UV-vis spectrophotometer analysis. It is filed as nucleic-acid assay. The settings on record: Bos taurus.
In data set [2] the test system is Calf thymus DNA. The data set is described as follows: Binding affinity to calf thymus DNA after 5 mins by fluorescence assay. It is filed as nucleic-acid assay. The settings on record: Bos taurus.
The nature of data set [3]: Lipophilicity, log P of the compound. Format: physicochemical. The settings on record: octanol/water.
Data set [4] can be described thus: Cytotoxicity against human U87 cells after 72 hrs by MTT assay. Format: functional, cell-based, U-87MG ATCC. The settings on record: U-87 MG. A general note: Tetrazolium dyes change colour on reduction, which living cells bring about.
The test system of data set [5] is HeLa. Briefly: Ratio of compound IC50 to Hoechst 33342 IC50 for human HeLa cells. It is filed as functional.
Data set [6] concerns MCF7. The data set is described as follows: cells. The settings on record: Homo sapiens, MCF7, 72 h.
Description: Cytotoxicity against human MCF7 cells after 72 hrs by MTT assay
Data set [7] has as its system HeLa. The data set is described as follows: cells. The settings on record: Homo sapiens, 72 h.
Description: Cytotoxicity against human HeLa cells after 72 hrs by MTT assay
A short description of data set [8]: Ratio of compound IC50 to Hoechst 33342 IC50 for human U87 cells. Format: functional, U-87MG ATCC.
The test system of data set [9] is MCF7. Briefly: Ratio of compound IC50 to Hoechst 33342 IC50 for human MCF7 cells. Format: functional.
Data set [10] deals with HeLa. The data set is described as follows: Ratio of compound IC50 to camptothecin IC50 for human HeLa cells. It is filed as functional.
Data set [11] is filed under the species Homo sapiens. The data set is described as follows: Inhibition of human purified topoisomerase 1b-mediated relaxation of supercoiled pBS (SK+) DNA at 25 uM after 30 mins by agarose gel electrophoresis.
The species entered for data set [12] is Homo sapiens. Briefly: Inhibition of human purified topoisomerase 1b-mediated relaxation of supercoiled pBS (SK+) DNA at 10 uM after 30 mins by agarose gel electrophoresis.
The species named for data set [13] is Homo sapiens. Briefly: Inhibition of human purified topoisomerase 1b-mediated relaxation of supercoiled pBS (SK+) DNA at 50 uM after 30 mins by agarose gel electrophoresis.
For data set [14], the species on record is Homo sapiens. The data set is described as follows: Inhibition of human purified topoisomerase 1b-mediated relaxation of supercoiled pBS (SK+) DNA at 75 uM after 30 mins by agarose gel electrophoresis.

Structures are written as SMILES. Active and inactive are the calls of the source. The rule behind the calls is not given here.

One may read the logP as a log measure of how a compound divides between an organic and an aqueous phase. Broadly, the IC50 is the midpoint of a concentration-inhibition curve. Read a low IC50 as greater potency. For orientation: inhibition means the change of the read-out against control, counted positive when it falls. Low readings indicate a weak effect, high ones a strong effect.

Turning to `CCOc1ccc(-c2nc3cc(-c4nc5cc(N6CCN(C)CC6)ccc5[nH]4)ccc3[nH]2)cc1`, the Activity in the data set on Calf thymus DNA [1] worked out at 38%. In the data set with Calf thymus DNA [2], the result was Active. Further, in [3], the logP amounted to 3.95. Besides, the IC50 in data set [4] was determined as 4.2 µM; with MCF7 [6], 0.5 µM; in the data set with HeLa [7] it was 0.3 µM. The “Ratio IC50” value in the data set on HeLa [5] is given as 2.
Consider `CN1CCN(c2ccc3nc(-c4ccc5nc(-c6ccc(Cl)cc6Cl)[nH]c5c4)[nH]c3c2)CC1`, for which the Activity in the data set with Calf thymus DNA [1] worked out at 28%. The outcome in the data set on Calf thymus DNA [2] and in the data set listed under Homo sapiens [11] was Active. For the same compound, in data set [3], the logP was 4.85. Also, the values for the IC50 (in [4]; in the data set on MCF7 [6]; in the data set with HeLa [7]) were 1.5 µM, 1.3 µM and 0.6 µM, respectively. The “Ratio IC50” value in data set [8] amounted to 2.8; in the data set with MCF7 [9], 2.6; with HeLa [10], 3.
Regarding `CC[C@@]1(O)C(=O)OCc2c1cc1n(c2=O)Cc2cc3ccccc3nc2-1` [CAMPTOTHECIN], the IC50 in data set [4] came out at 0.5 µM; with MCF7 [6], 0.65 µM; with HeLa [7] it was 1.5 µM. In the data set listed under Homo sapiens [12], this compound gave an inhibition of 80%.
For `CN1CCN(c2ccc3nc(-c4ccc5nc(-c6ccc(F)cc6F)[nH]c5c4)[nH]c3c2)CC1`, the Activity in the data set on Calf thymus DNA [1] is -20%. Also, the outcome with Calf thymus DNA [2] and in the data set filed under Homo sapiens [11] was Active. The compound also had a logP in data set [3] of 4.05. The IC50 in data set [4] turned out to be 5.5 µM; in the data set with MCF7 [6], 5.5 µM; in the data set with HeLa [7] it was 1.5 µM.
On to `COc1ccc(-c2nc3cc(-c4nc5cc(N6CCN(C)CC6)ccc5[nH]4)ccc3[nH]2)cc1OC`, for which the Activity in the data set with Calf thymus DNA [1] worked out at 1%. Also, the logP in data set [3] came to 3.48. Further, the IC50 is above 100 µM in data set [4], 5.3 µM with MCF7 [6] and 3.4 µM with HeLa [7]. For the same compound, the inhibition in the data set listed under Homo sapiens [13] and in the data set filed under Homo sapiens [14] was 90% each time.
As to `COc1cc(-c2nc3ccc(-c4nc5ccc(N6CCN(C)CC6)cc5[nH]4)cc3[nH]2)cc(OC)c1OC`, in the data set on Calf thymus DNA [1], the Activity was 27%. In addition, the logP in data set [3] was determined as 3.36. The IC50 in [4] is above 100 µM; in the data set on MCF7 [6], 16.8 µM; in the data set with HeLa [7] it was 29.3 µM. Moreover, the inhibition in the data set listed under Homo sapiens [13] and in the data set listed under Homo sapiens [14] was 90% each time.
